Assay results from patent publication US5856166A, “Streptomyces proteases and methods for improved secretion of recombinantly-expressed proteins” (Cangene Corporation, priority 1994, dated 1999).
Entries after “also recorded” stand apart in the source; their conditions may differ.

Legend:
Type in all cases: biochemical, S. lividans 66
[1] = target: T1, Tap (tripeptidyl aminopeptidase) (Streptomyces lividans, UniProt Q54410); test: Cleavage of IL-3 by Tap after PMSF treatment, isoelectric focusing; conditions: Tap preincubated with PMSF 30 minutes at 22° C.; incubation up to 4 hours at 37° C.
T1 construct: An autolytic tripeptide cleavage removing APA after signal peptide removal would yield the N-terminal found for the secreted protease; made in house; host or cells: Streptomyces lividans 66 (wild-type strain, native secreted enzyme purified from the broth)
T1 sequence (Q54410 40-537): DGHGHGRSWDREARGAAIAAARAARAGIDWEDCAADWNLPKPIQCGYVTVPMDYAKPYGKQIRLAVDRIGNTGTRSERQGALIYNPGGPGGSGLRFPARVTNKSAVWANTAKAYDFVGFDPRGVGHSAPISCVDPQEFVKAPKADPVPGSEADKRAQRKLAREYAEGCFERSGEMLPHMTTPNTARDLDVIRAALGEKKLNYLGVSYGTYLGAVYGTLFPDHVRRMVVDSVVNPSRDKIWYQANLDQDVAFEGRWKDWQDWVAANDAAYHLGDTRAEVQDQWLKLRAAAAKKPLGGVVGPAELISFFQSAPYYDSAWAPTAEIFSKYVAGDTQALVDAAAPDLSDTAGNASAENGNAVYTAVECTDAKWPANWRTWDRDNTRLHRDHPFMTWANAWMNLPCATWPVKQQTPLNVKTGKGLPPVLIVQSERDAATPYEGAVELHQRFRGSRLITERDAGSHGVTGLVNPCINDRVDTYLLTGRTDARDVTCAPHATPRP
Experimental: Lanes 1-4 show the incubation of IL-3 with TAP-S that has been treated with PMSF. Lane 1=4 hrs; Lane 2=2 hours; Lane 3=1 hr.; Lane 4=0 hours. Lanes 5-8 show the incubation of IL-3 with uninhibited Tap. Lane 5=4 hrs.; Lane 6=2 hrs.; Lane 7=1 hrs.; Lane 8=0 hrs. Lane 9 is a human carbonic anhydrase marker, pI=7.4. Lane 10 contains pI markers. […] The enzyme is not affected by sulfhydryl reagents, chelators or aspartyl protease inhibitors (Table I).
To 50 ul 20 mM Tris-HCl, pH 8.0, 40 ul rhIL-3 (2.5 ug/ul, Cangene) was added followed by 10 ul Tap. The assays were incubated at 37° C.. 25 ul aliquots were withdrawn at the desired time points and frozen on crushed dry ice. The products were separated by isoelectric focusing from pH 3-10 using Pharmalyte 3-10 (Pharmacia) ampholytes (FIG. 4). Products were visualized by staining with Coomassie Blue G-250.
Tap stock (Example 1) was diluted 100-fold with 20 mM Tris-HCl, pH 8.0. A fresh solution of 80 mM PMSF was prepared in isopropanol (iPrOH). A Stock Buffer of 20 mM Tris-HCl, pH 8.0 was prepared. Four preincubations were prepared as follows.
These were incubated at 22° C. for 30 minutes. When the preincubation was complete, 40 ul rhIL-3 (2.5 ug/ul, Cangene) were added and incubation was initiated at 37° C.. […] When the sampling process was complete, the products were analyzed by isoelectric focusing from pH 3-10 (Example 2).

[2] = target: T1, Tap (tripeptidyl aminopeptidase); test: Cleavage of GM-CSF by Tap, native gel electrophoresis
Experimental: The assay was performed as described in Example 7. The Tap concentration in the assays was 5 nM. Lane 1=GM-CSF standard; Lane 2=GM-CSF after digestion with Tap in the absence of APACMK; Lanes 3 and 4=150 uM APACMK; Lanes 5 and 6=15 uM APACMK; Lanes 7 and 8=1.5 uM APACMK; Lanes 9 and 10=150 nM APACMK; Lanes 11 and 12=15 nM APACMK; Lanes 13 and 14=1.5 nM APACMK; Lanes 15 and 16=150 pM APACMK.
To 10 ul of rhGM-CSF (10 ug, Cangene) and 20 ul 20 mM Tris-HCl, pH 8.0, 20 ul of Tap were added. The assays were incubated at 37° C. for 2 hrs. 20 ul of 125 mM Tris-HCl, pH 6.8, 0.1% bromophenol blue in 50% aqueous glycerol were added. Products were separated by native gel electrophoresis at constant current on a 17% polyacrylamide gel by a modification of the method of Davies (Davies, 1964) in which the pH of all buffers was modified with H2 SO4. Products were visualized by staining with Coomassie Blue G-250 (see FIG. 1A).
A stock solution of 10 nM Tap in 20 mM Tris-HCl, pH 8.0 was prepared. Serial dilutions of 210 uM, 21 uM, 2.1 uM, 210 nM, 21 nM, and 2.1 nM APACMK (Example 5) were prepared. To 20 ul Tap, 20 ul of an APACMK dilution (or water for an uninhibited enzyme control) were added and incubated at 22° C. for 30 minutes. 10 ul of GM-CSF (1 ug/ul, Cangene) were added and incubated at 37° C. for 2 hours. Products were analyzed by native gel electrophoresis as described in Example 2.

[3] = target: T1, Tap (tripeptidyl aminopeptidase); test: Inhibition of TAP in the APA-pNA assay (protease inhibitor survey, Table I)
Experimental: The protease and inhibitor were preincubated for 15 minutes at 22° C. Substrate was added and the mixture was incubated at 37° C. Activity was measured by monitoring the change in absorbance at λ=405 nm.
The assay was conducted in a 96 well microtiter plate. To each well in the assay, 50 ul 100 mM Tris-HCl, pH 8.0, were added followed by 25 ul 3.2 mM APA-pNA. 25 ul of Tap were added to the wells and the absorbance was read at 405 nm. The assays were incubated at 37° C. for 2 hours. The absorbance was read at 405 nm. The activity (release of p-nitroaniline) was calculated from the change in absorbance.

`O=S(=O)(F)Cc1ccccc1` [PMSF, phenylmethanesulfonyl fluoride] was tested, and the “effect on cleavage of IL-3 by Tap” value [1] was “inhibited; also recorded: intact IL-3 is clearly detected after 4 hours”, the “effect on cleavage of GM-CSF by Tap” value [2] was “inhibited” and the “effect on cleavage of APA-pNA by Tap” value ([3]; Tap treated with PMSF) was “inhibited”. For the same compound, the “Residual Activity” value ([3]; inhibitor 1.6 mM, preincubated 15 minutes at 22° C., substrate APA-pNA, enzyme only = 100) was 7.
